Measurements reported in US20210128654A1, “COMPOSITION FOR TREATING, PREVENTING, OR IMPROVING MALE INFERTILITY” (Mugen General Incorporated Association, priority 2018, published 2021).

What was measured:
Format in all cases: in vivo
[1] = tested on: male testis-specific non-mitochondrial GPx4 knockout mouse; test: Mating test of male infertility model mouse (number of pregnancies and child mice); conditions: "VE high-content feed": vitamin E 100 mg + CE-2 feed 100 g, mating period 3 months
Description: In this Example, as a male infertility model mouse, a male testis-specific non-mitochondrial GPx4 knockout mouse was used (see, Non Patent Literature 2). The testis-specific non-mitochondrial GPx4 knockout mouse is a mouse deficient in non-mitochondrial phospholipid hydroperoxide glutathione peroxidase (cGPx4) in the testis and has the phenotypes listed in the following Table 1.
(§1) A single 3 weeks-old male testis-specific non-mitochondrial GPx4 knockout mouse was assigned to each of the four groups shown in Table 2 (below) and separately raised (singly per cage) up to 8 weeks-old. To a normal control group, mouse breeding feed CE-2 (CLEA Rodent Diet CE-2; a product manufactured by CLEA Japan, Inc.) was fed during the test period. As a positive control substance, vitamin E (Non Patent Literature 1), which is used in treatment for male infertility, was selected and a mixture of feed CE-2 and vitamin E was fed to a positive control substance administration group during the test period. The ratio of vitamin E in the mixture was 100 mg relative to 100 g of feed CE-2. To the test groups, a mixture of feed CE-2 and koji mold fermentation product obtained in Example 1 was fed during the test period. For a low dose group, a feed having a content of koji mold fermentation product of 0.5 wt % was used. For a high dose group, a feed having a content of koji mold fermentation product of 5.0 wt % was used. Feed CE-2 and feed CE-2 mixed with the positive control substance or a koji mold fermentation product were free to take and water was free to drink from a water-supply bottle. In the aforementioned conditions, mice were raised from 3 weeks-old to 8 weeks-old.
When male testis-specific non-mitochondrial GPx4 knockout mice grew up to be crossable (8 weeks-old) mice, three of 7 weeks-old BALB/c female mice were assigned to each cage and crossed with a single male testis-specific non-mitochondrial GPx4 knockout mouse. The mating period was 3 months. […]

[2] = tested on: male testis-specific non-mitochondrial GPx4 knockout mouse; test: Abnormal sperm ratio and sperm-tail fold angle by microscopy; conditions: "VE high-content feed": vitamin E 100 mg + CE-2 feed 100 g; FIG. 4
Description: as §1, with “For a high dose group, a feed having a content of koji mold fermentation product of 5.0 wt % was used. Feed CE-2 and feed CE-2 mixed with the positive control substance or a koji mold fermentation product were free to take and water was free to drink from a water-supply bottle. In the aforementioned conditions, mice were raised from 3 weeks-old to 8 weeks-old.” left out
In a testis-specific non-mitochondrial GPx4 knockout mouse, a half or more of the sperms have an abnormal structure (a sperm tail is folded to form a hair-pin structure); in other words, abnormal sperm morphology. […] The sperms in a plurality of fields of view under the microscope were photographed, and the numbers of normal sperms and abnormal sperms in the photographs were counted, and then, an average ratio of abnormal sperms was calculated.

[3] = tested on: male testis-specific non-mitochondrial GPx4 knockout mouse; test: Testis tissue observation (hematoxylin eosin), removal of spermatocytes; conditions: "VE high-content feed": vitamin E 100 mg + CE-2 feed 100 g; FIG. 6
Description: A single 3 weeks-old male testis-specific non-mitochondrial GPx4 knockout mouse was assigned to each of the four groups shown in Table 2 (below) and separately raised (singly per cage) up to 8 weeks-old. To a normal control group, mouse breeding feed CE-2 (CLEA Rodent Diet CE-2; a product manufactured by CLEA Japan, Inc.) was fed during the test period. As a positive control substance, vitamin E (Non Patent Literature 1), which is used in treatment for male infertility, was selected and a mixture of feed CE-2 and vitamin E was fed to a positive control substance administration group during the test period. The ratio of vitamin E in the mixture was 100 mg relative to 100 g of feed CE-2. To the test groups, a mixture of feed CE-2 and koji mold fermentation product obtained in Example 1 was fed during the test period. For a low dose group, a feed having a content of koji mold fermentation product of 0.5 wt % was used. For a high dose group, a feed having a content of koji mold fermentation product of 5.0 wt % was used. Feed CE-2 and feed CE-2 mixed with the positive control substance or a koji mold fermentation product were free to take and water was free to drink from a water-supply bottle. In the aforementioned conditions, mice were raised from 3 weeks-old to 8 weeks-old. […]

Substance: vitamin E
- total number of child mice ([1]; 3 females, FIG. 2b): 60
- number of child mice per delivery of the female mice ([1]; FIG. 2c): 7
- total number of pregnancies of three female mice ([1]; single male x 3 BALB/c females, FIG. 2a): 8
- significantly low ratio of abnormal sperms [2]: not observed
- removal of the spermatocytes in testis tissue [3]: improved
